Values of other authors in patent publication US20100152480A1 (priority 2008, published 2010).

What was measured:
[1] = 20° C.
[2] = system: gram negative bacteria (Alcaligenes faecalis, Bordetella bronchiseptica, Citrobacter freundii, Citrobacter intermedium, Enterobacter aerogenes, Escherichia …); details: listed gram negative species; known from prior art
[3] = system: gram positive bacteria (Arthrobacter oxydans, Bacillus cereus var mycoide, Bacillus subtilis, Bacillus megaterium, Clostridium perfringens, Listeria …); details: listed gram positive species; known from prior art
[4] = system: moulds and yeast (Aspergillus niger, Aureobasidium pullulans, Cladosporium cladosporioides, Gliocadium virens, Chaetonium globosum, Penicillium chrysogenum …); details: listed moulds and yeasts; known from prior art

## ethyl-Na-dodecanoyl-Larginate HCl [Ethyl lauroyl arginate]
[1]
  solubility in water: greater than 247 g/kg
[2]
  effectiveness against gram negative bacteria: effective
[3]
  effectiveness against gram positive bacteria: effective
[4]
  effectiveness against moulds and yeast: effective
